In PMC8318231, “Rate-of-Kill (RoK) assays to triage large compound sets for Chagas disease drug discovery: Application to GSK Chagas Box” (PLoS Neglected Tropical Diseases, 2021):

Tests used:
[1] = test system: T. cruzi intracellular amastigotes in H9c2 cells; assay: Rate-of-Kill (RoK) high-content imaging assay, amastigotes per cell (AM/CELL) and curve descriptors; type: cell-based, Trypanosoma cruzi; set-up: key to ME_24h / ME_48h / ME_72h: % reduction in parasite burden (cidal response); t50pct_MCC50 / t50pct_Cmax: unit not given here; details: for ME_24h: 24h; for ME_48h: 48h; for ME_72h: 72h; for ME_24h (%): maximum effect at 24 h; for ME_24h (%) / ME_48h (%) / ME_72h (%): RoK assay; for ME_48h (%): maximum effect at 48 h; for ME_72h (%): maximum effect at 72 h; for ME 24h (maximum effect at 24 hours, intracellular amastigotes): maximum percentage of parasite burden reduction reached by any concentration
Summary of the method: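 H9c2 cardiomyocytes infected with T. cruzi trypomastigotes (MOI 8, 18 h), then compounds tested at 5 μM single shot or 11-point 1/3 dilution from 50 μM. DRAQ5-stained nuclei imaged over a time course. Amastigotes per cell normalised to infected cells at 4 h (0%) and non-infected cells (100%).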

[2] = test system: T. cruzi Tulahuen trypomastigotes; assay: T. cruzi trypomastigote assay (Cell Titer-Glo viability, ATP luminescence); type: cell-based, Trypanosoma cruzi; details: for Trypomastigotes pIC50 48 hours: 48 hours incubation; for Trypomastigotes pIC50 48 hours / Trypomastigotes pIC50 72 hours: pIC50 = -log10 IC50 in molar units; for Trypomastigotes pIC50 72 hours: 72 hours incubation; for 72 pIC50 (trypomastigotes, raw data of Fig 1D): 72 hours, plotted values, censored values given without sign; for 48 pIC50 / 72 pIC50: trypomastigote assay; for 48 pIC50: 48 h; for 72 pIC50: 72 h
Summary of the method: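 Tulahuen trypomastigotes from infected LLC-MK2 culture supernatants (days 5–8) plated at 5 × 10^4 per well in DMEM/2% FBS with compound at 5 μM single-shot final or in dose response. Viability by CellTiter-Glo ATP luminescence after 10 min at room temperature, normalised to no-cell (100%) and DMSO (0%) controls.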

COc1ccc2ncc(=O)n(CCN3CCOC(CNCc4ccc(C(F)(F)F)cc4F)C3)c2n1 (stereo not shown) [TCMDC-143384]
ME_24h ([1]; figure 5): -27.6403
ME_48h ([1]; figure 5): -15.9254
ME_72h ([1]; figure 5): -18.8553
MCCE ([1]; RoK curve descriptor): 0.6 µM
AM/CELL NORM ([1]; Time 4, sheet figure 4 A): -15.3138
AM/CELL NORM ([1]; Time 24, sheet figure 4 A): -27.6403
AM/CELL NORM ([1]; Time 48, sheet figure 4 A): -15.9254
AM/CELL NORM ([1]; Time 72, sheet figure 4 A): -18.8553
tlag_Cmax ([1]; at Cmax): 24.0 h
t50pct_Cmax ([1]; at Cmax, figure 5): 72
tlag_Cmax ([1]; at Cmax, figure 5): 24
t50pct_MCC50 ([1]; at MCC50, figure 5): 72
tlag_MCC50 ([1]; at MCC50, figure 5): 72
MCC50 ([1]; figure 5): 50 µM
MCCE ([1]; figure 5): 0.6173
ME_24h (%) [1]: -27.6%
ME_48h (%) [1]: -15.9%
ME_72h (%) [1]: -18.9%
ME 24h (maximum effect at 24 hours, intracellular amastigotes) [1]: -27.6403%
Trypomastigotes pIC50 48 hours [2]: < 4.3
Trypomastigotes pIC50 72 hours [2]: < 4.3
72 pIC50 (trypomastigotes, raw data of Fig 1D) [2]: < 4.3
48 pIC50 ([2]; figure 1A): < 4.3
72 pIC50 ([2]; figure 1A): < 4.3
72 pIC50 ([2]; figure 1B): < 4.3

CCOc1ccc(NC(=O)C=Cc2ccc(CC)o2)cc1 [TCMDC-143160]
ME_24h ([1]; figure 5): -214.627
ME_48h ([1]; figure 5): -667.694
ME_72h ([1]; figure 5): -988.393
MCCE ([1]; RoK curve descriptor): 16.7 µM
AM/CELL NORM ([1]; Time 4, figure 4 A): 1.332
AM/CELL NORM ([1]; Time 24, figure 4 A): -214.627
AM/CELL NORM ([1]; Time 48, figure 4 A): -667.694
AM/CELL NORM ([1]; Time 72, figure 4 A): -988.393
tlag_Cmax ([1]; at Cmax): 72.0 h
t50pct_Cmax ([1]; at Cmax, figure 5): 72
tlag_Cmax ([1]; at Cmax, figure 5): 72
t50pct_MCC50 ([1]; at MCC50, figure 5): 72
tlag_MCC50 ([1]; at MCC50, figure 5): 72
MCC50 ([1]; figure 5): 50 µM
MCCE ([1]; figure 5): 16.6667
ME_24h (%) [1]: -214.6%
ME_48h (%) [1]: -667.7%
ME_72h (%) [1]: -988.4%
ME 24h (maximum effect at 24 hours, intracellular amastigotes) [1]: 0.6973%
Trypomastigotes pIC50 48 hours [2]: 5.4
Trypomastigotes pIC50 72 hours [2]: 5

CN(C)CCOc1ccc(N2CCN(S(=O)(=O)c3ccc(Cl)cc3)CC2)cc1 [TCMDC-143622]
ME_24h ([1]; figure 5): 11.982
ME_48h ([1]; figure 5): 63.0909
ME_72h ([1]; figure 5): 72.2951
MCC50 ([1]; RoK curve descriptor): 1.9 µM
MCCE ([1]; RoK curve descriptor): 1.9 µM
AM/CELL NORM ([1]; Time 4, sheet figure 4 A): 6.264
AM/CELL NORM ([1]; Time 24, sheet figure 4 A): 11.982
AM/CELL NORM ([1]; Time 48, sheet figure 4 A): 63.0909
AM/CELL NORM ([1]; Time 72, sheet figure 4 A): 55.0876
t50%_Cmax ([1]; at Cmax): 48.0 h
tlag_Cmax ([1]; at Cmax): 4.0 h
t50pct_Cmax ([1]; at Cmax, figure 5): 48
tlag_Cmax ([1]; at Cmax, figure 5): 4
t50%_MCC50 ([1]; at MCC50): 72.0 h
tlag_MCC50 ([1]; at MCC50): 24.0 h
t50pct_MCC50 ([1]; at MCC50, figure 5): 72
tlag_MCC50 ([1]; at MCC50, figure 5): 24
MCCE ([1]; figure 5): 1.852
MCC50 ([1]; figure 5, in µM): 1.852
ME_24h (%) [1]: 12.0%
ME_48h (%) [1]: 63.1%
ME_72h (%) [1]: 72.3%
ME 24h (maximum effect at 24 hours, intracellular amastigotes) [1]: 11.982%
Trypomastigotes pIC50 48 hours [2]: < 4.3
Trypomastigotes pIC50 72 hours [2]: < 4.3
72 pIC50 (trypomastigotes, raw data of Fig 1D) [2]: < 4.3
48 pIC50 ([2]; figure 1A): < 4.3
72 pIC50 ([2]; figure 1A): < 4.3
72 pIC50 ([2]; figure 1B): < 4.3

O=C(CN(c1cccc(C(F)(F)F)c1)S(=O)(=O)c1ccc(Cl)cc1)NCc1ccc(F)c(F)c1 [TCMDC-143548]
ME_24h ([1]; figure 5): -13.6646
ME_48h ([1]; figure 5): 17.5808
ME_72h ([1]; figure 5): 36.7488
MCCE ([1]; RoK curve descriptor): 0.6 µM
AM/CELL NORM ([1]; Time 4, sheet figure 4 A): 27.6101
AM/CELL NORM ([1]; Time 24, sheet figure 4 A): -54.8458
AM/CELL NORM ([1]; Time 48, sheet figure 4 A): -14.5763
AM/CELL NORM ([1]; Time 72, sheet figure 4 A): 13.9259
tlag_Cmax ([1]; at Cmax): 24.0 h
t50pct_Cmax ([1]; at Cmax, figure 5): 72
tlag_Cmax ([1]; at Cmax, figure 5): 24
t50pct_MCC50 ([1]; at MCC50, figure 5): 72
tlag_MCC50 ([1]; at MCC50, figure 5): 72
MCC50 ([1]; figure 5): 50 µM
MCCE ([1]; figure 5): 0.6173
ME_24h (%) [1]: -13.7%
ME_48h (%) [1]: 17.6%
ME_72h (%) [1]: 36.8%
ME 24h (maximum effect at 24 hours, intracellular amastigotes) [1]: -13.6646%
Trypomastigotes pIC50 48 hours [2]: 5
Trypomastigotes pIC50 72 hours [2]: 4.9

Cc1ccc(C)c(OC2CCN(C(=O)C(C)n3ccnc3)CC2)c1 (stereo not shown) [TCMDC-143481]
ME_24h ([1]; figure 5): -18.0648
ME_48h ([1]; figure 5): -41.8218
ME_72h ([1]; figure 5): 55.4241
MCC50 ([1]; RoK curve descriptor): 5.6 µM
MCCE ([1]; RoK curve descriptor): 0.6 µM
AM/CELL NORM ([1]; Time 4, sheet figure 4 A): -1.4032
AM/CELL NORM ([1]; Time 24, sheet figure 4 A): -18.0648
AM/CELL NORM ([1]; Time 48, sheet figure 4 A): -41.8218
AM/CELL NORM ([1]; Time 72, sheet figure 4 A): 1.753
tlag_Cmax ([1]; at Cmax): 48.0 h
t50pct_Cmax ([1]; at Cmax, figure 5): 72
tlag_Cmax ([1]; at Cmax, figure 5): 48
t50%_MCC50 ([1]; at MCC50): 72.0 h
tlag_MCC50 ([1]; at MCC50): 48.0 h
t50pct_MCC50 ([1]; at MCC50, figure 5): 72
tlag_MCC50 ([1]; at MCC50, figure 5): 48
MCCE ([1]; figure 5): 0.6173
MCC50 ([1]; figure 5, in µM): 5.556
ME_24h (%) [1]: -18.1%
ME_48h (%) [1]: -41.8%
ME_72h (%) [1]: 55.4%
ME 24h (maximum effect at 24 hours, intracellular amastigotes) [1]: -18.0648%
Trypomastigotes pIC50 48 hours [2]: < 4.3
Trypomastigotes pIC50 72 hours [2]: < 4.3
72 pIC50 (trypomastigotes, raw data of Fig 1D) [2]: < 4.3
48 pIC50 ([2]; figure 1A): < 4.3
72 pIC50 ([2]; figure 1A): < 4.3
72 pIC50 ([2]; figure 1B): < 4.3
